From ChEMBL document CHEMBL1201862, “PubChem BioAssay data set” (2004)
Calls of active or inactive are those of the source.

Columns and labels:
[1] = HEp-2 cell cytotoxicity, dose response, cytotoxicity control for RSV inhibitor project, HTS (AID 2410); type: functional; details: human respiratory syncytial virus
Cytochrome P450 2C19 = Cytochrome P450 2C19 (Homo sapiens, UniProt P33261); experiment: Cytochrome panel assay with activity outcomes. Panel member name: p450-cyp2c19 Compounds with AC50 equal or less than 10 uM are considered active; type: functional; details: read-out: AC50
Cytochrome P450 2D6 = Cytochrome P450 2D6 (Homo sapiens, UniProt P10635);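 note: CYP2D6 member of a cytochrome P450 panel assay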
Cytochrome P450 3A4 = Cytochrome P450 3A4 (Homo sapiens, UniProt P08684);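 note: CYP3A4 tested as one member of a cytochrome P450 panel screen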
[2] = tested on: Streptococcus sp. 'group A'; experiment: growth inhibition of control SK(-) GAS strain, dose response, counter-screen for streptokinase expression inhibitor project, luminescence, kanamycin, BacTiterGlo, confirmation (AID 1900); type: functional, organism-based
Streptokinase A = target: T1, Streptokinase A (Streptococcus pyogenes serotype M1, UniProt P10520); experiment: S. pyogenes streptokinase expression inhibitors, potency, dose response, plasminogen activation absorbance, OD405 (AID 1914); type: functional, Streptococcus pyogenes M1 GAS;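 note: secreted streptokinase activity via plasminogen activation per viability signal from cell pellet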
T1 sequence (P10520 whole entry): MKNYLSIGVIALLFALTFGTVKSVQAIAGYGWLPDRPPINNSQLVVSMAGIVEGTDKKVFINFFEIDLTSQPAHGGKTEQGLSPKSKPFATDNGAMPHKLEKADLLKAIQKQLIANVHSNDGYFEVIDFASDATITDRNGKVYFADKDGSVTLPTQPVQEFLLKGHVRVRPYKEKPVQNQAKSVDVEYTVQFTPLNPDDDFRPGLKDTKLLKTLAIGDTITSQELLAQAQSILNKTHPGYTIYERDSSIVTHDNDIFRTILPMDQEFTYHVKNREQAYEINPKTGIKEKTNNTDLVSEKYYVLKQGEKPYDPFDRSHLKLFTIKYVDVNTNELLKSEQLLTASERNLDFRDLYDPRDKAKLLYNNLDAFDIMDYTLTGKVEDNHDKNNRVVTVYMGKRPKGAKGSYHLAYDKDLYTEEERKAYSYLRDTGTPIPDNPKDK

Streptococcus = experiment: Group A Streptococcus viability loss, dose response, counter-screen for streptokinase expression inhibitor project, luminescence, BacTiterGlo (AID 1915); type: functional, organism-based;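 note: potency for reduction of bacterial viability or growth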
[3] = Shn3 3'UTR reporter inhibitors, dose response, cell-based, Clone20 osteoblasts, firefly luciferase, cherry-picked (AID 624132); type: functional;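 note: firefly luciferase luminescence from reporter carrying the Shn3 3'UTR in osteoblasts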
[4] = target: T2, Corticotropin-releasing factor receptor 2/Corticotropin-releasing factor-binding protein (Homo sapiens, UniProt P24387+Q13324); experiment: Dose Response confirmation of uHTS hits for small molecule antagonists of the CRF-binding protein and CRF-R2 receptor complex.; type: functional; details: read-out: IC50_Mean
T2 sequence (Q13324 whole entry): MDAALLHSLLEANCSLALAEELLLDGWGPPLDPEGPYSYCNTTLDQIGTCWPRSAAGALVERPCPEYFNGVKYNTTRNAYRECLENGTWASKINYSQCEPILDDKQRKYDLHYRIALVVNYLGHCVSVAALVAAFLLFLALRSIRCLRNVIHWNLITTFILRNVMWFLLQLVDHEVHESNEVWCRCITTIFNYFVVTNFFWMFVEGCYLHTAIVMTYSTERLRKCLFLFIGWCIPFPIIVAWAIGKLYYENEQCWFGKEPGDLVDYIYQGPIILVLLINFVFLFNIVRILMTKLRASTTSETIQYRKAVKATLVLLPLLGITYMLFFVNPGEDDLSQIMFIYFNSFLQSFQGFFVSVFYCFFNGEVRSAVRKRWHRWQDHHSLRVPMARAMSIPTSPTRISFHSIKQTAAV
T2 sequence (P24387 whole entry): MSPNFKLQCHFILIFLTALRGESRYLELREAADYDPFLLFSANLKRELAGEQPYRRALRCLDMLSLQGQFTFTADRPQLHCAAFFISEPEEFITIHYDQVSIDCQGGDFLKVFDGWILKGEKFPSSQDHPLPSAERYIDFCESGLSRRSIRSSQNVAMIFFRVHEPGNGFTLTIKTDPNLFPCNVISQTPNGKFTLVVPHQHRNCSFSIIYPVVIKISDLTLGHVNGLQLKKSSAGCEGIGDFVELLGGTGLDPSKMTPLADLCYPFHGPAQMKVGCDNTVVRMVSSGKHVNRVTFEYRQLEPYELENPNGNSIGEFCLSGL

[5] = target: T2, Corticotropin-releasing factor receptor 2/Corticotropin-releasing factor-binding protein; experiment: activators of CRF receptor 2 with binding protein – uHTS hits, confirmation (AID 602473); type: functional; details: read-out: EC50_Mean
[6] = target: T3, Heat shock factor protein 1 (Mus musculus, UniProt P38532); experiment: inhibition of MG132-induced HSE-luciferase signal, confirmation, cell-based, NIH3T3, luminescence, dose retest (AID 2382); type: functional;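 note: NIH3T3 fibroblasts with HSF1-driven luciferase reporter stressed by proteasome inhibitor MG132; luminescence from HSF1-driven luciferase expression after 8 hours of MG132 stress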
T3 sequence (P38532 whole entry): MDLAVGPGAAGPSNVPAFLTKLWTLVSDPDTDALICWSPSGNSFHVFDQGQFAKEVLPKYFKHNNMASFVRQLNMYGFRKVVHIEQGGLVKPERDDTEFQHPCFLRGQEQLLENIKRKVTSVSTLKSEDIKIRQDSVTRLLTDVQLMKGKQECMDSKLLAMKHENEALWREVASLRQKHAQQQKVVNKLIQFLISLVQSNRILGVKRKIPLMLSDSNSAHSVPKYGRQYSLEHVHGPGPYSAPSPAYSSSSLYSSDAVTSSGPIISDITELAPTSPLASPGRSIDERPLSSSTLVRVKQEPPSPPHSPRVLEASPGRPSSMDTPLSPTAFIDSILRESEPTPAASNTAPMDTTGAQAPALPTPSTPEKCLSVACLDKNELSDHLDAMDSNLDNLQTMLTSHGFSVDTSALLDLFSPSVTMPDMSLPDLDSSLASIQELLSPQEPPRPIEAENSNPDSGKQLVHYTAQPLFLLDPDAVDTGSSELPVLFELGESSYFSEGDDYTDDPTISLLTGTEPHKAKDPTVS

Cytochrome P450 2C9 = Cytochrome P450 2C9 (Homo sapiens, UniProt P11712)
Sequence of Cytochrome P450 2C9 (P11712 whole entry): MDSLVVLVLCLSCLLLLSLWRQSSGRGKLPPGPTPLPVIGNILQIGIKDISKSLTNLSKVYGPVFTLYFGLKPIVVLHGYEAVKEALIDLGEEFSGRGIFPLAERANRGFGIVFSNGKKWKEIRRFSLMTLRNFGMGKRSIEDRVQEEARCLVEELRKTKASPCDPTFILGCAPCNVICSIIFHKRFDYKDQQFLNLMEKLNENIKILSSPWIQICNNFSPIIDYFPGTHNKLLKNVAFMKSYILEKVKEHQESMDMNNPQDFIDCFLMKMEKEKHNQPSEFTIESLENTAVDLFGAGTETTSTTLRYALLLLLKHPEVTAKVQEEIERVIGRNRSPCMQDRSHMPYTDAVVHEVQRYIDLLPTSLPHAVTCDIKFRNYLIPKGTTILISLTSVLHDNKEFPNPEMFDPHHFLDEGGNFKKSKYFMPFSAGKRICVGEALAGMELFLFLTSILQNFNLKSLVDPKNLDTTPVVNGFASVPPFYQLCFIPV

Sequence of Cytochrome P450 2C19 (P33261 whole entry): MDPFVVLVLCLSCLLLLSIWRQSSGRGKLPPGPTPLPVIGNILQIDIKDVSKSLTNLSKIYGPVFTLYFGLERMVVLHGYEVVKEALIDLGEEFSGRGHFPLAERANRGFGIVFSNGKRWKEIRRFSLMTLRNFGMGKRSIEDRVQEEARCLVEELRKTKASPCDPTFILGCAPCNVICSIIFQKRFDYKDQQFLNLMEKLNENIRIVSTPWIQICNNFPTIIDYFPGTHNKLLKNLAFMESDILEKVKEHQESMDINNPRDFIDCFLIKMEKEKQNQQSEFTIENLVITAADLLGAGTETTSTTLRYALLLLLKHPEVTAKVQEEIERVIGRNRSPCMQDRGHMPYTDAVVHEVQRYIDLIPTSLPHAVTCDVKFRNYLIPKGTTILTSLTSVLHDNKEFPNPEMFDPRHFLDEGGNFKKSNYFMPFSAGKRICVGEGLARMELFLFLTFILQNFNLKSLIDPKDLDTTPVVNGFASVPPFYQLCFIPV
Sequence of Cytochrome P450 2D6 (P10635 whole entry): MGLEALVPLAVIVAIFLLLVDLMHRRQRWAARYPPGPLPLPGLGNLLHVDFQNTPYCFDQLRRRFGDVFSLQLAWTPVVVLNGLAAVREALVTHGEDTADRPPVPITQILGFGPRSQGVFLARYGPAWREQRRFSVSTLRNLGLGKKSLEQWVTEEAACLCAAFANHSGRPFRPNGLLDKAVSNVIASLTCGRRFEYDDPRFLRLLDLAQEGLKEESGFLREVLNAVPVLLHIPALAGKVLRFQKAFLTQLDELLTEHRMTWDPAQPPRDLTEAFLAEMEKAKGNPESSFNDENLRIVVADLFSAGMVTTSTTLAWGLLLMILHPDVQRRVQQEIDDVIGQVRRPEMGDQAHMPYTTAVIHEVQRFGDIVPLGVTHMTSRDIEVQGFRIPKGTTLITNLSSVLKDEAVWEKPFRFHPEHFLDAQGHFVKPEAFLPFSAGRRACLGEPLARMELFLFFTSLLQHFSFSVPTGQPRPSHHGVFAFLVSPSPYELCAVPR
Sequence of Cytochrome P450 3A4 (P08684 whole entry): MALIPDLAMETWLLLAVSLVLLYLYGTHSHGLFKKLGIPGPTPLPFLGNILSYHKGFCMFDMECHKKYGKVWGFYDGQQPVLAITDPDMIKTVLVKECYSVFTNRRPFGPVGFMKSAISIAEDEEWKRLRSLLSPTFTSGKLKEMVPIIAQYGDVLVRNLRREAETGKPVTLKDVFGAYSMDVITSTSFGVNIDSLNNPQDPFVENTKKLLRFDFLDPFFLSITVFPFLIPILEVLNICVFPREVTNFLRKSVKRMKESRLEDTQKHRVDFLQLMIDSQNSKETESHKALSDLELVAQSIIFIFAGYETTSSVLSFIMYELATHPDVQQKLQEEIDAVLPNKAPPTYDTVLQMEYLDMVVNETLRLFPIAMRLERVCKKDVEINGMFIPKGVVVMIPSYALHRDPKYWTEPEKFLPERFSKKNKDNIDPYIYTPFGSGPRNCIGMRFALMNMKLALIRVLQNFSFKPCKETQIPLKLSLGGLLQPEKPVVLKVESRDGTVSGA

## Cc1ccccc1OCCNC(=O)c1ccc2ccccc2n1
[1]
  CC50: 24.5 µM (active)

## Cc1ccc(C(=O)Nc2nc3ccccc3n3nnnc23)cc1
Cytochrome P450 2C19
  AC50: 14.1 µM (inconclusive)
Cytochrome P450 2D6
  AC50: 12.6 µM (inconclusive)
Cytochrome P450 3A4
  AC50: 10 µM (inconclusive)

## CCOc1cc(N2CCOCC2)c(OCC)cc1NC(=O)C1=NN(c2cccc(C)c2)C(=O)CC1
[2]
  EC50: 13.8 µM (active)
Streptokinase A
  EC50: > 150 µM (not active)
Streptococcus
  EC50: 123 µM (active)

## COC(=O)c1ccc(C(NC(=O)c2ccco2)[C@]2(C)C[C@H]2C2CCCCC2)cc1 (stereo partly specified)
Cytochrome P450 2D6
  AC50: 12.6 µM (inconclusive)

## Cc1n[nH]c(-c2ccc(OCc3cnn(-c4ccccc4)c3)c(C)c2O)c1Oc1ccccc1
[1]
  CC50: 14.6 µM (active)

## CCN(CC)C(=O)C1CCCN(c2ccc([N+](=O)[O-])cc2[N+](=O)[O-])C1 (stereo unspecified)
[3]
  AC50: 52.4 µM (active)

## COc1ccc(NC(=O)c2nc3nccc(C)n3n2)cc1S(=O)(=O)N1CCOCC1
[4]
  IC50: > 47.1 µM (inactive)
[5]
  EC50: > 53 µM (inactive)

## CC1CN(C2CCN(C(=O)c3cccc(Cl)c3)CC2)CC(C)O1 (stereo unspecified)
Cytochrome P450 2C19
  AC50: 5.62 µM (inconclusive)
Cytochrome P450 2D6
  AC50: 0.891 µM (inconclusive)

## CCn1c(SCC(=O)NC2CCCCC2)nc2c(c1=O)SC(C)C2 (stereo unspecified)
Cytochrome P450 2D6
  AC50: 1.58 µM (inconclusive)

## CCCCN1C(=O)C(CC(=O)NCC)S/C1=N/c1ccccc1 (stereo unspecified)
[6]
  EC50: > 195 µM (not active)

## COc1ccc(S(=O)(=O)N(C)CC(=O)NC2CCCCC2)cc1OC
[4]
  IC50: > 47.1 µM (inactive)
[5]
  EC50: > 53 µM (inactive)

## Cc1ccc2c(Cl)cc(Cl)c(OCC(=O)NC(C)(C)C)c2n1
[2]
  EC50: 12.7 µM (active)
Streptokinase A
  EC50: > 150 µM (not active)
Streptococcus
  EC50: > 150 µM (not active)

## COc1ccc(S(=O)(=O)N2CCN(C(=O)CCCN3C(=O)NC4(CCCC4)C3=O)CC2)cc1
[4]
  IC50: > 47.1 µM (inactive)
[5]
  EC50: > 53 µM (inactive)

## CC(NC(=O)COC(=O)c1ccc2c(=O)n3c(nc2c1)CCCCC3)c1ccccc1 (stereo unspecified)
[4]
  IC50: > 47.1 µM (inactive)
[5]
  EC50: > 53 µM (inactive)

## O=C(Oc1ccccc1)N1CCC2(CCCN(Cc3ccccc3)C2)CC1
Cytochrome P450 2D6
  AC50: 10 µM (inconclusive)
Cytochrome P450 3A4
  AC50: 12.6 µM (inconclusive)

## Cc1ccc(N2CC(C(=O)Nc3nc4ccc(S(C)(=O)=O)cc4s3)CC2=O)cc1 (stereo unspecified)
[6]
  EC50: > 195 µM (not active)

## N#Cc1ccc(CN2CCN(CC(=O)NCCc3ccc(Cl)cc3Cl)CC2)cc1
[1]
  CC50: 22.9 µM (active)

## CC(=O)Nc1ccc(S(=O)(=O)NCc2csc(C)n2)cc1
[6]
  EC50: > 195 µM (not active)

## CC1CN(S(=O)(=O)c2ccc(C(=O)N3CCc4ccccc43)cc2)CC(C)O1 (stereo unspecified)
[4]
  IC50: > 47.1 µM (inactive)
[5]
  EC50: > 53 µM (inactive)

## COc1ccc(N(C)C(=O)CN(C)S(=O)(=O)c2ccc3c(c2)c(=O)n(C)c(=O)n3C)c(OC)c1
[6]
  EC50: 120 µM (active)

## Cc1[nH]c2ccccc2c1C(C[N+](=O)[O-])c1cccs1 (stereo unspecified)
[6]
  EC50: > 195 µM (not active)

## Cc1cccc(C)c1OCC(=O)NCc1ccccc1
[6]
  EC50: > 195 µM (not active)

## c1ccc2c(NCCN3CCOCC3)nc(-c3ccoc3)nc2c1
Cytochrome P450 2D6
  AC50: 25.1 µM (inconclusive)
Cytochrome P450 3A4
  AC50: 15.8 µM (inconclusive)

## Cc1ccc(C(=O)OCn2nnc3ccccc3c2=O)cc1[N+](=O)[O-]
[4]
  IC50: > 47.1 µM (inactive)
[5]
  EC50: > 53 µM (inactive)

## COc1ccc2[nH]cc(CCNc3cc(-c4cccc(C#N)c4)ncn3)c2c1
Cytochrome P450 2D6
  AC50: 20 µM (inconclusive)

## COc1ccc(CCNC(=O)CN(c2ccc(OC)c(OC)c2)S(C)(=O)=O)cc1OC
[6]
  EC50: > 195 µM (not active)

## CC(=O)Nc1ccc(NC(=O)COc2ccc([N+](=O)[O-])cc2)cc1
[4]
  IC50: > 47.1 µM (inactive)
[5]
  EC50: > 53 µM (inactive)

## CC(N1CCOC1=O)S(=O)(=O)c1ccccc1 (stereo unspecified)
[6]
  EC50: > 195 µM (not active)

## Cc1ccnn2cc3c(=O)n(C)c(=O)n(C)c3c12
Cytochrome P450 2D6
  AC50: 20 µM (inconclusive)
Cytochrome P450 2C9
  AC50: 11.2 µM (inconclusive)

## CCOc1ccccc1N1CCN(C(=O)Cc2ccc(S(=O)(=O)N3CCOCC3)s2)CC1
[4]
  IC50: > 47.1 µM (inactive)
[5]
  EC50: > 53 µM (inactive)

## CCCC(c1cc(C(C)(C)C)c(O)cc1C)c1cc(C(C)(C)C)c(O)cc1C
Cytochrome P450 2C19
  AC50: 6.31 µM (inconclusive)
Cytochrome P450 2D6
  AC50: 3.98 µM (inconclusive)
Cytochrome P450 2C9
  AC50: 3.16 µM (inconclusive)

## CCN(CC(=O)N1CCCC1)S(=O)(=O)c1ccc(F)cc1
[6]
  EC50: > 195 µM (not active)

## N#C/C(=C\Nc1ccc2c[nH]nc2c1)c1nc(-c2ccccc2)cs1
[6]
  EC50: > 195 µM (not active)

## CC(Oc1ccc(Cl)cc1Cl)C(=O)NC1=NN(c2ccccc2)C(=O)C1 (stereo unspecified)
[2]
  EC50: 3.04 µM (active)
Streptokinase A
  EC50: 123 µM (inconclusive)
Streptococcus
  EC50: 6.39 µM (active)

## CCOC(=O)Nc1ccccc1C(=O)Nc1cc(C)cc(C)c1
[6]
  EC50: > 195 µM (not active)

## CN1[C@@H]2CC[C@H]1C[C@@H](OC(=O)c1c[nH]c3ccccc13)C2 [TROPISETRON]
Cytochrome P450 2D6
  AC50: 31.6 µM (inconclusive)

## CCOC(=O)C1CCCN(C(=O)COC(=O)c2cccs2)C1 (stereo unspecified)
[4]
  IC50: > 47.1 µM (inactive)
[5]
  EC50: > 53 µM (inactive)

## CC(C)(C)NC(=O)/C(=C/c1ccccc1F)NC(=O)c1ccc([N+](=O)[O-])cc1
[4]
  IC50: > 47.1 µM (inactive)
[5]
  EC50: > 53 µM (inactive)

## CC(C)(C)c1cc(NCc2ccccn2)n2ncc(-c3ccc(Cl)cc3)c2n1
[2]
  EC50: 2.44 µM (active)
Streptokinase A
  EC50: > 150 µM (not active)
Streptococcus
  EC50: 3.1 µM (active)

## O=C(NC1(C(F)(F)F)C(=O)Nc2c1c(=O)[nH]c(=O)n2Cc1ccccc1)c1ccc(Cl)cc1 (stereo unspecified)
[4]
  IC50: > 47.1 µM (inactive)
[5]
  EC50: > 53 µM (inactive)

## COc1ccc(CN(CCCN2CCOCC2)C(=O)Nc2cccc(Cl)c2)cc1OC
[6]
  EC50: > 195 µM (not active)

## COc1ccccc1C(=O)NCCn1cc(SCC(=O)Nc2nnc(C)s2)c2ccccc21
Cytochrome P450 2D6
  AC50: 28.2 µM (inconclusive)

## COc1ccccc1-c1nnc(SC2CCc3ccccc3NC2=O)s1 (stereo unspecified)
[6]
  EC50: > 195 µM (not active)

## OCCNc1nc(SCc2ccccc2)nc2sc3c(c12)CCC3
Cytochrome P450 2D6
  AC50: 25.1 µM (inconclusive)

## CCN(CC)S(=O)(=O)c1cccc(NC(=O)CCNC(=O)NC23CC4CC(CC(C4)C2)C3)c1
[6]
  EC50: > 195 µM (not active)

## COc1ccc(CC(=O)N/N=C(\C)c2ccc(Br)s2)cc1
[4]
  IC50: > 47.1 µM (inactive)
[5]
  EC50: > 53 µM (inactive)

## CS(=O)(=O)Nc1cccc(-c2ccc3ncnc(Nc4ccc(F)cc4)c3c2)c1
Cytochrome P450 2D6
  AC50: 39.8 µM (inconclusive)

## COc1cccc(C(C(=O)Nc2ccc(F)cc2)N(C(=O)Cn2nnc3ccccc32)C2CC2)c1 (stereo unspecified)
Cytochrome P450 2D6
  AC50: 25.1 µM (inconclusive)
